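Assay format: 96-well plates, 48-hour exposure. TGI denotes the concentration required for complete inhibition of growth.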

Common to all, as to test: NCI anticancer screen, dose series, 48 h
Assay [1] has as its system HOP-62 NSCLC.
Assay [2] deals with OVCAR-3 ovarian.
Assay [3] concerns SN12C renal.
Assay [4] deals with SW-620 colon.
Assay [5] concerns CCRF-CEM leukemia.
The test system of assay [6] is SR leukemia.
Assay [7] deals with SF-539 CNS.
In assay [8] the test system is EKVX NSCLC.
The test system of assay [9] is MDA-MB-435.
The subject of assay [10] is MCF7 breast.
For assay [11], the system named is SNB-19 CNS.
The test system of assay [12] is K-562 leukemia.
Assay [13] has as its system MDA-N.
Assay [14] concerns PC-3 prostate.
The subject of assay [15] is CAKI-1 renal.
The subject of assay [16] is HT29 colon.
In assay [17] the test system is OVCAR-5 ovarian.
For assay [18], the system named is U251 CNS.
The subject of assay [19] is TK-10 renal.

`CCC(=O)Nc1ccc(N=Cc2cccc(Oc3ccccc3)c2)cc1`: the TGI in assay [1] was more than 100 µM; in assay [2], more than 100 µM; in assay [3], more than 100 µM; in assay [4], more than 100 µM; in assay [5] it was 63.9 µM; in assay [6], 67.9 µM. In addition, the TGI in assay [7] is 35.9 µM; in assay [8] it was more than 100 µM; in assay [9], more than 100 µM; in assay [10], more than 100 µM; in [11], more than 100 µM; in [12], more than 100 µM. Moreover, the TGI in assay [13], in [14], in assay [15] and in assay [16] was more than 100 µM throughout.

Consider `COc1ccc(CN2C[C@H]3[C@@H](CC(=O)O[C@H]3C)CC2=O)cc1`, for which the TGI in assay [1], in assay [2], in assay [4], in assay [5], in [6] and in [8] was more than 100 µM each time. Also, the TGI in assay [9], in [10], in assay [17], in assay [11], in assay [12] and in assay [13] was more than 100 µM each time. In addition, the TGI in assay [14], in assay [15], in assay [18] and in [16] was more than 100 µM each time.

Turning to `C#CCOC(=O)c1ccccc1O`, the TGI in assay [1], in assay [19], in [3], in assay [4], in assay [5] and in assay [6] was more than 100 µM throughout. Also, the TGI in [7], in assay [8], in assay [9], in [10], in assay [17] and in [11] was more than 100 µM each time. Also, the TGI in assay [12], in assay [13], in assay [14], in assay [15] and in assay [18] was more than 100 µM in each case.

Take `CC1=NN(c2cccc(Cl)c2)C2(SCC(=O)N2c2nc3ccccc3s2)/C1=C\c1ccc(Cl)cc1` (stereo not drawn): the TGI in assay [1] was 35.3 µM; in [2], 37.2 µM; in assay [19], more than 100 µM; in assay [4] it was 27.9 µM; in assay [5] it was 3.31 µM; in assay [6], 15.9 µM. For the same compound, the TGI in assay [7] is 89.6 µM; in [8], more than 100 µM; in assay [9], 43.1 µM; in assay [10], 87 µM; in assay [17], 55.4 µM; in assay [12] it was 41.3 µM. Also, the TGI was found to be 69.8 µM in assay [13]; 31.1 µM in assay [14]; 39.2 µM in assay [15]; 28.2 µM in assay [18]; 42.7 µM in assay [16].

Regarding `CC(C)(C)OC(=O)N(O)[C@@H]1C=C[C@H](n2cnc3c(N)ncnc32)C1`, the TGI in [1], in [2], in assay [19], in assay [3], in [4] and in assay [5] was more than 100 µM in each case. Moreover, the TGI in [6], in assay [7], in assay [8], in assay [9], in assay [10] and in [17] was more than 100 µM in each case. The TGI in assay [11], in assay [12], in assay [13], in assay [14], in [15] and in [18] was more than 100 µM in each case.

Regarding `COC(=O)/C=C/c1ccc2c(c1)CCC2`, the TGI in [1] was more than 100 µM; in assay [2] it was more than 100 µM; in assay [19] it was more than 100 µM; in [4], more than 100 µM; in assay [5], more than 100 µM; in assay [6], 72.9 µM. Also, the TGI in assay [7], in [8], in assay [9], in assay [10], in assay [17] and in assay [11] was more than 100 µM in each case. The TGI in assay [12], in assay [13], in assay [14], in assay [15], in assay [18] and in [16] was more than 100 µM throughout.

For the compound `CC1Cc2c(Br)nc(N)nc2NC1=O` (stereo not drawn), the TGI in assay [1], in assay [2], in [19], in assay [3], in assay [4] and in [6] was more than 100 µM in each case. Moreover, the TGI in assay [7], in assay [8], in [9], in assay [10], in [17] and in assay [11] was more than 100 µM in each case. In addition, the TGI in [12], in assay [13], in assay [14], in assay [15], in [18] and in [16] was more than 100 µM in each case.

Turning to `Cc1ccc(/C(O)=C/c2nc3ccccc3oc2=O)cc1`, the TGI in [1], in [2], in [19], in [3], in assay [5] and in assay [6] was more than 100 µM throughout. For the same compound, the TGI in assay [7] is more than 100 µM; in [8], more than 100 µM; in [9], 83.4 µM; in [10], more than 100 µM; in [17], more than 100 µM; in assay [11] it was more than 100 µM. The TGI in [12] is more than 100 µM; in assay [13], 59.3 µM; in assay [14], more than 100 µM; in assay [15], more than 100 µM; in assay [18], more than 100 µM; in [16] it was more than 100 µM.

The values above are taken from PubChem BioAssay (NCI).
